Melting point data for 64 compounds are collected here from a melting point compilation (Tetko et al.; mined from patent text by program, amines drawn as free bases though some values may be those of a salt).

As usually defined, the melting point is the temperature of the solid-liquid transition.

The structures appear in SMILES notation. Some results are limits rather than exact numbers.

Turning to `COCCOC(=O)C1=C(C)NC(C)C(C(=O)OC(C)C)(c2ccc(F)cc2F)C1` (centres undefined), the melting point was 123 to 126 °C.

Turning to `CCCCCc1ncc(C(=O)OCC)c(NCc2ccc(-c3ccccc3-c3nnnn3C(c3ccccc3)(c3ccccc3)c3ccccc3)cc2)n1`, the melting point was in the range of 107 to 108 °C. In the case of `O=C(Nc1ccc(C[C@H](NS(=O)(=O)N2CCCCC2)C(=O)O)cc1)c1c(Cl)cncc1Cl`, the melting point worked out at 208 °C. `COc1ccc2[nH]c(SCc3ncnc(N4CCCCC4)c3C)nc2c1`: the melting point fell in the range of 94 to 96 °C.

Compound `O=C1Cc2cc(O)cc(O)c2C2CCCCC12` (centres undefined) returned a melting point of 220 to 223 °C.

In the case of `Cc1nc2ccccc2n1Cc1ccc(-n2c(C)nc3cnccc32)cc1`, the melting point lay in the range of 184 to 185 °C. To `CCOC(=O)C(C#N)C1(C#N)C(=O)N(Cc2ccc(Br)cc2F)c2c(C)cccc21` (centres undefined) belongs 130 to 132 °C; to `Nc1c(-c2cc(Cl)ccc2O)c2c(C(F)(F)F)cccc2[nH]c1=O`, 267 to 268 °C. Turning to `CC(C)(C)c1cc(Nc2ccc(C=CC(=O)O)cc2)cc(C(C)(C)C)c1O`, the melting point was 199 to 200 °C. On to `CC(C)(CNC(=O)C(C)(C)CCC(=O)O)SN=O`, for which the melting point was 100 to 101 °C.

`CC(C)c1[nH]nc(C(N)=O)c1[N+](=O)[O-]` returned a melting point of 179 to 180 °C. For the compound `NNC(=O)c1cn2c(nc1=O)CCC2`, the melting point lay in the range of 204 to 206 °C.

On to `Nc1nc(O)c2cc(C#Cc3ccc(C(=O)O)cc3)cnc2n1`, for which the melting point was greater than 260 °C. `Cc1c(C(=O)OCc2ccccc2)[nH]c2cc3c(sc4ccccc43)c(C)c12` gave a melting point of 203 to 204 °C. For `CC(C)OC(=O)N1CCC(NC(=O)N2CCn3c(c(C(N)=O)c(Cl)c3-c3ccccc3)C2)CC1`, the melting point is 166 to 167 °C. As to `Fc1cc(CC2(Cc3ccncc3)c3ccccc3-c3sccc32)ccn1` (centres undefined), the melting point was in the range of 117 to 119 °C. With `COc1ccccc1-c1cc2cnc(N)nc2nc1NC(=O)NC(C)(C)C`, the melting point lay in the range of 300 to 301 °C. `O=C1C2=C(CCCC2)C(=O)N1c1cccc(O)c1` gave a melting point of 196 to 198 °C. Turning to `COc1cccc2cc(CCl)oc12`, the melting point was in the range of 44.5 to 45 °C. To `CC(Oc1ccc(OC(F)(F)F)cc1)c1ccnc2ncnn12` (centres undefined) belongs 91 to 93 °C.

As to `CN1C=C(N2CCCC2)c2ccc3ccccc3c2S1(=O)=O`, the melting point lay within 176 to 178 °C. In the case of `O=[N+]([O-])c1cc2oc(-c3ccccc3)nc2cc1N1CCOCC1`, the melting point was in the range of 134 to 135 °C. In turn, `NC(=O)OCC(O)COc1noc2ccc(Cl)cc12` (centres undefined) showed a melting point of 123 to 124 °C. Compound `Cc1ccc(-c2nc3ncccc3o2)cc1` gave a melting point of 135 to 136 °C. For `CC1(C)C[C@@H](n2c(=O)c(Cl)nc3ccccc32)c2cc(C#N)ccc2O1`, the melting point was in the range of 174 to 176 °C. As for `O=C(C[N+](=O)[O-])c1ncn(Cc2ccccc2)c1[N+](=O)[O-]`, the melting point lay in the range of 105 to 107 °C. To `COCCOCCOc1cc(N)c(C#N)cc1[N+](=O)[O-]` belongs 106 to 108 °C; to `CC(=O)OCC1OC(n2cc(F)c(=O)[nH]c2=O)CC1OCc1ccccc1` (centres undefined), 87 to 88 °C; to `CC[N+](CC)(CC)C1CC(=O)N1C(C(=O)OCc1ccc([N+](=O)[O-])cc1)=C([O-])CCOC(=O)c1ccccc1` (centres undefined), 133 to 134 °C.

In turn, `O=S(=O)(NC1CCC(O)CC1)c1cccc2ccccc12` (centres undefined) registered a melting point of 174 °C.

Take `CCOCCc1c(-c2ccccc2)nc(Cl)n2ncnc12`: the melting point lay in the range of 134 to 135 °C. For `CC1Cc2c(N3CCN(CC(F)(F)F)CC3)c(F)cc3c(=O)c(C(=O)O)cn1c23` (centres undefined), the melting point was 287 to 289 °C.

The compound `Cc1ccc(S(=O)(=O)OCC(C)C2CCC3C4CC=C5CC(O)CC(O)C5(C)C4CCC23C)cc1` (centres undefined) returned a melting point of 91 to 99 °C. To `O=C(C=CC=C(c1ccc(Cl)cc1)c1ccc(Cl)cc1)Nc1ccc(C(=O)O)cc1` belongs 273 to 276 °C; to `CN(C)c1ccc(C(=O)c2ccc(N)cc2)cc1`, 150 °C; to `CSc1nc(C)c(Cl)c(Cl)n1`, 49 to 50 °C. In the case of `Cc1oncc1C(=O)N1CCC[C@H](c2nc(-c3cc4ccccc4[nH]3)no2)C1`, the melting point was in the range of 163 to 164 °C.

With `COc1ccc(OCCc2c[nH]cn2)cc1`, the melting point was in the range of 178 to 181 °C. With `CC1=Nc2ccccc2N(Cc2ccccc2)C(=O)C1`, the melting point is 111 to 113 °C. Turning to `COC(=O)c1c(C)cc2cc(OC)c(OC)cc2c1-c1ccnc(Br)c1`, the melting point is 148 to 150 °C. Compound `O=C(Nc1ccccc1)N(CCCn1ccnc1)C1=Nc2cccc3cccc1c23` came in with a melting point of 240 to 250 °C. Under `OCCCCc1ccc(OCc2coc(/C=C/c3ccccc3)n2)cc1` stands 90 to 91 °C; under `Cc1c(NC(=O)c2ccc(-c3ccc(Cl)cc3)cc2)ccc2cc(CN3CCCC3)cnc12`, 227 to 229 °C.

For the compound `CCn1nccc1NC(=O)c1ccc(OC)c2oc(COC)cc12`, the melting point lay within 97 to 99 °C. `Cc1nc(N(C)C)sc1C(=O)c1ccc(Cl)c([N+](=O)[O-])c1` yielded a melting point of 165 to 169 °C. As for `COC(=O)c1ccc(COc2ccc3c(c2)CCN(C2CCN(C4CCC4)CC2)C3=O)cc1`, the melting point was 165 to 166 °C. In turn, `C=CCOC1=C(O)[C@@H](CC/C=C\CCCCCCCCCCCCCC)OC1=O` displayed a melting point of 49 to 53 °C. Consider `Cc1nccn1N=Cc1cc(C(C)(C)C)c(O)c(C(C)(C)C)c1`, for which the melting point lay in the range of 206 to 207 °C. The compound `N#CC1=C(c2ccc(Cl)s2)Nc2n[nH]cc2C1c1cccc2nonc12` (centres undefined) showed a melting point of 210 °C. For `Nc1cccc(-c2nc(-c3cccnc3)no2)c1`, the melting point is 161 to 163 °C. Take `NC(=O)c1nnc2n1-c1ccc(Cl)cc1C(c1ccccc1Cl)=NC2`: the melting point was in the range of 226 to 228 °C.

On to `CCCC(=O)c1cnc2c(CO)cccc2c1Nc1ccccc1C`, for which the melting point lay within 148 to 150 °C. `Cc1cccc2c1-c1ccccc1C2CO` (centres undefined) came in with a melting point of 120 to 122 °C. Compound `CNC(=S)C1=CC(CF)(CF)Oc2ccc(C(F)(F)C(F)(F)F)cc21` yielded a melting point of 148 to 149 °C. In the case of `CCOCCNC(=O)C(c1ccccc1)c1ccccc1`, the melting point is 83.5 to 86.2 °C. With `NC(=O)c1c(C(=O)O)cnn1-c1ccc(Cl)cc1`, the melting point fell in the range of 249 to 250 °C. In turn, `CC1(C)NC(=O)N(c2cc(C#N)c(C#N)c(C(F)(F)F)c2)C1=O` displayed a melting point of 159 to 160 °C. For `O=C(NC(=O)c1c(F)cccc1F)Nc1cc(Br)c(Br)cc1C(F)(F)F`, the melting point came to 203 °C. In turn, `CNC(=O)N(C)c1cc(C(C)(C)C)on1` showed a melting point of 150 to 151 °C.

`CCCCc1nn(-c2cc(NC(C)=O)ccc2Cl)c(=O)n1Cc1ccc(-c2cc(CCC)ccc2S(=O)(=O)NC(=O)c2ccccc2F)cc1F` had a melting point of 148 to 150 °C.

Compound `N#CCc1ccc([N+](=O)[O-])c(OCc2ccccc2)c1` had a melting point of 73 to 85 °C. Turning to `Cc1nc2c(cc1C(=O)NC(=N)N)CCCCC2COS(=O)(=O)O` (centres undefined), the melting point fell in the range of 231 to 233 °C. On to `CN1C(=O)CN(c2cccc(Br)c2)NC1=O`, for which the melting point lay in the range of 165 to 166 °C.

Compound `COc1cc(OC)cc(-c2nc[nH]c2-c2ccc(OC)c(O)c2F)c1` showed a melting point of 126 to 128 °C.
